Assay results taken from patent US20080096967A1, “Formulations for Injection of Catecholic Butanes, Including Ndga Compounds, Into Animals” (priority 2005, published 2008).

Tested on: HeLa, an HPV-18 positive human cervical cancer cell line
Assay: Cell proliferation and cell death, trypan blue exclusion, HeLa cells
Assay type: cell-based
Procedure: M4N in 10% (w/v) HP-β-CD and 25% (v/v) PEG 300 (hereafter, the “CPE formulation”), M4N in 30% (w/v) HP-β-CD and 25% (v/v) PEG 300 (hereafter, the “CPE 25/30 formulation”) and M4N in 27% (w/v) HP-β-CD and 33% (v/v) PEG 300 (hereafter, the “CPE 33/27 formulation”) was tested for their effects on cell death and proliferation on two different tumor cell lines: HeLa, an HPV-18 positive human cervical cancer cell line, and C-33A, an HPV-negative human cervical cancer cell line M4N in DMSO was also tested in parallel. Both tumor cell lines were treated with increasing amounts of M4N: 0 μM, 20 μM, 40 μM, 60 μM and 80 μM, for 72 hr with the DMSO or the CPE formulation. Each formulation was added to total 1% of the growth media (Minimal Essential Medium with L-glutamine supplemented with 10% fetal bovine serum, 1 mM sodium pyruvate, 1× non-essential amino acid solution, and 1,000 IU/mL penicillin/1,000 μg/mL streptomycin solution). Control cells were grown under the same conditions and were left untreated. After 72 hr of treatment or no treatment, the total number of cells and the number of live cells in each sample were counted, using the trypan blue exclusion method. The cell proliferation rate and the percentage of dead cells in each sample were analyzed. Results of this experiment are shown in FIG. 1, FIG. 2, and Tables 6 through 12.
FIG. 1 is a graphical representation of the ratio of the number of treated cells/number of untreated cells plotted against increasing concentrations of M4N in either the DMSO formulation or the CPE formulation for treatment of the C-33A cells and HeLa cells. FIG. 2 is a graphical representation of the percentage of dead cells plotted against increasing concentrations of M4N and in either DMSO formulation or the CPE formulation for treatment of the two cancer cell lines, C-33A and HeLa cells in culture.
Various lots of M4N were tested to show the effectiveness of the drug of different lots. HeLa cells were treated with increasing amounts of M4N: 0 μM, 20 μM, 40 μM, 60 μM and 80 μM, for 72 hr with the CPE formulation. Each formulation was added to total 1% of the growth media (Minimal Essential Medium with L-glutamine supplemented with 10% fetal bovine serum, 1 mM sodium pyruvate, 1× non-essential amino acid solution, and 1,000 IU/mL penicillin/1,000 μg/mL streptomycin solution). Control cells were grown under the same conditions and were left untreated. After 72 hr of treatment or no treatment, the total number of cells and the number of live cells in each sample were counted, using the trypan blue exclusion method. The cell proliferation rate and the percentage of dead cells in each sample were analyzed.

[1] = M4N 20 μM in CPE 25/30 formulation, 72 hr
[2] = M4N 20 μM in CPE 25/30 formulation, 72 hr, at 3 months
[3] = M4N 20 μM in CPE 33/27 formulation, 72 hr, time zero
[4] = M4N 20 μM in CPE formulation, 72 hr, at 3 months
[5] = M4N 20 μM in CPE formulation, 72 hr, at 9 months
[6] = M4N 20 μM in CPE formulation, 72 hr, at 12 months
[7] = M4N 20 μM in CPE formulation, 72 hr, comparison with CPE 25/30
[8] = M4N 20 μM in CPE formulation, 72 hr, time 0
[9] = M4N 20 μM in CPE formulation, 72 hr, time zero, comparison with CPE 33/27
[10] = M4N 20 μM in DMSO, 72 hr, at 9 months
[11] = M4N 20 μM in DMSO, 72 hr, at 12 months
[12] = M4N 20 μM in DMSO, 72 hr, time 0
[13] = M4N 40 μM in CPE 25/30 formulation, 72 hr
[14] = M4N 40 μM in CPE 25/30 formulation, 72 hr, at 3 months
[15] = M4N 40 μM in CPE 33/27 formulation, 72 hr, time zero
[16] = M4N 40 μM in CPE formulation, 72 hr, at 3 months
[17] = M4N 40 μM in CPE formulation, 72 hr, at 9 months
[18] = M4N 40 μM in CPE formulation, 72 hr, at 12 months
[19] = M4N 40 μM in CPE formulation, 72 hr, comparison with CPE 25/30
[20] = M4N 40 μM in CPE formulation, 72 hr, time 0
[21] = M4N 40 μM in CPE formulation, 72 hr, time zero, comparison with CPE 33/27
[22] = M4N 40 μM in DMSO, 72 hr, at 9 months
[23] = M4N 40 μM in DMSO, 72 hr, at 12 months
[24] = M4N 40 μM in DMSO, 72 hr, time 0
[25] = M4N 60 μM in CPE 25/30 formulation, 72 hr
[26] = M4N 60 μM in CPE 25/30 formulation, 72 hr, at 3 months
[27] = M4N 60 μM in CPE 33/27 formulation, 72 hr, time zero
[28] = M4N 60 μM in CPE formulation, 72 hr, at 3 months

COc1ccc(C[C@@H](C)[C@@H](C)Cc2ccc(OC)c(OC)c2)cc1OC [Formulation M4N, meso-1,4-bis(3,4-dimethoxyphenyl)-2,3-dimethylbutane]
cell death, share of the cell population (80 μM or […] M4N in CPE formulation): about 20% | cell death, share of the cell population (80 μM or […] M4N in DMSO formulation): about 40% | M4N sufficient to cause about a 50% inhibition in cell proliferation (CPE formulation, 72 hr): ~7.2 µg/mL | effectiveness of the drug of different lots (CPE formulation, lots EM1001 and EM1002): remains the same | % Dead Cells [1]: 9.4% | % Viability [1]: 90.7% | Proliferation Rate [1]: 0.34 | % Dead Cells [2]: 11.9% | % Viability [2]: 88.1% | Proliferation Rate [2]: 0.39 | % Dead Cells [3]: 10.9% | % Viability [3]: 89.2% | Proliferation Rate [3]: 0.43 | % Dead Cells [4]: 9.0% | % Viability [4]: 91.0% | Proliferation Rate [4]: 0.39 | % Dead Cells [5]: 31.3% | % Viability [5]: 68.7% | Proliferation Rate [5]: 0.24 | % Dead Cells [6]: 3.3% | % Viability [6]: 96.8% | Proliferation Rate [6]: 0.74 | % Dead Cells [7]: 6.6% | % Viability [7]: 93.5% | Proliferation Rate [7]: 0.33 | % Dead Cells [8]: 4.4% | % Viability [8]: 95.6% | Proliferation Rate [8]: 0.52 | % Dead Cells [9]: 11.9% | % Viability [9]: 88.1% | Proliferation Rate [9]: 0.35 | % Dead Cells [10]: 10.7% | % Viability [10]: 89.3% | Proliferation Rate [10]: 0.19 | % Dead Cells [11]: 12.6% | % Viability [11]: 87.4% | Proliferation Rate [11]: 0.23 | % Dead Cells [12]: 9.9% | % Viability [12]: 90.1% | Proliferation Rate [12]: 0.25 | % Dead Cells [13]: 11.0% | % Viability [13]: 89.1% | Proliferation Rate [13]: 0.31 | % Dead Cells [14]: 13.4% | % Viability [14]: 86.6% | Proliferation Rate [14]: 0.32 | % Dead Cells [15]: 13.6% | % Viability [15]: 86.4% | Proliferation Rate [15]: 0.19 | % Dead Cells [16]: 16.5% | % Viability [16]: 83.5% | Proliferation Rate [16]: 0.09 | % Dead Cells [17]: 27.2% | % Viability [17]: 72.8% | Proliferation Rate [17]: 0.10 | % Dead Cells [18]: 5.0% | % Viability [18]: 95.0% | Proliferation Rate [18]: 0.21 | % Dead Cells [19]: 23.4% | % Viability [19]: 76.7% | Proliferation Rate [19]: 0.08 | % Dead Cells [20]: 9.4% | % Viability [20]: 90.6% | Proliferation Rate [20]: 0.28 | % Dead Cells [21]: 25.9% | % Viability [21]: 74.2% | Proliferation Rate [21]: 0.14 | % Dead Cells [22]: 8.8% | % Viability [22]: 91.2% | Proliferation Rate [22]: 0.14 | % Dead Cells [23]: 13.7% | % Viability [23]: 86.4% | Proliferation Rate [23]: 0.04 | % Dead Cells [24]: 13.2% | % Viability [24]: 86.8% | Proliferation Rate [24]: 0.25 | % Dead Cells [25]: 22.8% | % Viability [25]: 77.3% | Proliferation Rate [25]: 0.12 | % Dead Cells [26]: 23.1% | % Viability [26]: 76.9% | Proliferation Rate [26]: 0.11 | % Dead Cells [27]: 29.3% | % Viability [27]: 70.7% | Proliferation Rate [27]: 0.10 | % Dead Cells [28]: 43.1% | % Viability [28]: 56.9%
